Experimental data from ChEMBL document CHEMBL1201862, “PubChem BioAssay data set” (2004).
The source made the active and inactive calls.

What was measured:
[1] = inhibitors of non-replicating M. tuberculosis, dose response, luciferase, dry powder (AID 651620); format: functional; conditions: Mycobacterium tuberculosis
[2] = inhibitors of non-replicating M. tuberculosis, dose response, luciferase, dry powder (AID 651619); format: functional; conditions: Mycobacterium tuberculosis
[3] = BHK-21 cell cytotoxicity, cytotoxicity control for flavivirus guanylyltransferase probe project, secondary screen (AID 624078); format: functional
[4] = HepG2 cell cytotoxicity, dose response, cytotoxicity control, dry powder samples (AID 720568); format: functional, cell-based
BJ [5] = experiment: cytotoxicity toward BJ-TERT-LT-ST fibroblasts, dose response, cell-based, RAS-independent, luminescence (AID 1935); format: functional; conditions: Homo sapiens;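 also: BJ fibroblasts immortalized with TERT plus LT and ST oncogenes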
[6] = HEK293 cell cytotoxicity, dose response, cytotoxicity control, dry powder samples (AID 720567); format: functional, cell-based
[7] = cytotoxicity toward DRD oncogenic fibroblasts, dose response, cell-based, non-viral oncogenic, luminescence (AID 1934); format: functional; conditions: Homo sapiens
BJ [8] = experiment: cells; format: functional, cell-based; conditions: Homo sapiens
BJ [9] = experiment: cytotoxicity toward BJ-TERT fibroblasts, dose response, cell-based, RAS-independent, luminescence (AID 1933); format: functional; conditions: Homo sapiens
[10] = biological target: 1-phosphatidylinositol 4,5-bisphosphate phosphodiesterase beta-3 (Homo sapiens, UniProt Q01970); experiment: Fluorescence-based biochemical high throughput dose response assay to identify inhibitors of phospholipase C isozymes (PLC-B3).
Vero = Vero cell cytotoxicity, cytotoxicity control for flavivirus capping enzyme inhibitors (AID 588742); format: functional; conditions: Chlorocebus sabaeus
Beta-galactosidase = Beta-galactosidase (Escherichia coli, UniProt Q8VNN2); experiment: beta-galactosidase enzyme inhibitors and activators, dose response, artefact control for CCR6 antagonist project, biochemical, E. coli enzyme, set 3 (AID 504712); format: functional
Beta-galactosidase, sequence (Q8VNN2 whole entry, the tested form may be a part): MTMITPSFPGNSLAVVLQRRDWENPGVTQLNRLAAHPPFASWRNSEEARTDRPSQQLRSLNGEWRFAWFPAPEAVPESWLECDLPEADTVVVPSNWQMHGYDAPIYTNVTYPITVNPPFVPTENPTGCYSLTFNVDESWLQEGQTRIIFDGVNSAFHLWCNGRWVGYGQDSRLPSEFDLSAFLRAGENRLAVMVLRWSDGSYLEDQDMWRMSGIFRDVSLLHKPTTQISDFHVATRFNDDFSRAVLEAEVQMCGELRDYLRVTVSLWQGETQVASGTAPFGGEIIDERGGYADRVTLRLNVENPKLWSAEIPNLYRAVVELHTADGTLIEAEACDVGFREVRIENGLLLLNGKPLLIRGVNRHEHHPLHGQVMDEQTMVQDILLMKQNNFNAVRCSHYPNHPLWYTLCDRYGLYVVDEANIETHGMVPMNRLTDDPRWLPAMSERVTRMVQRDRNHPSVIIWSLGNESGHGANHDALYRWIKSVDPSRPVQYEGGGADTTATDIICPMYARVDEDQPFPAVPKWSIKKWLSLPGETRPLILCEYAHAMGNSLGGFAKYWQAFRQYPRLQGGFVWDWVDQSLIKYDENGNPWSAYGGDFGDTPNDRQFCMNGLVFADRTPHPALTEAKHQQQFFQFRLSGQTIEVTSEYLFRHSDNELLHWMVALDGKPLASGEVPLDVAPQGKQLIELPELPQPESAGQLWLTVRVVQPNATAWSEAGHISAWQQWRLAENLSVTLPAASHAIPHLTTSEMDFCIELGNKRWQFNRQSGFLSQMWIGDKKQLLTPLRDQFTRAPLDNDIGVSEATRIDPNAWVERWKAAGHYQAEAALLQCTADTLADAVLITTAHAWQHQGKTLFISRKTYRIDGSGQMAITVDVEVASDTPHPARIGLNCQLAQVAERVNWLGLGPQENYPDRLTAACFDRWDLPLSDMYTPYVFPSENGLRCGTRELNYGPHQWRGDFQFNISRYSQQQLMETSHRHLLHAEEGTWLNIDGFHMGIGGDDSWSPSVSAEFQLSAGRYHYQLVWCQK

[11] = Fluorescence-based cell-based high throughput dose response assay for inhibitors of the interaction of nucleotide-binding oligomerization domain containing 2 (NOD2) and the receptor-interacting serine-threonine kinase 2 (RIPK2).; format: functional; conditions: Homo sapiens
Cysteine protease ATG4B = Cysteine protease ATG4B (Homo sapiens, UniProt Q9Y4P1); format: functional;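 also: Fluorescence-based dose-response confirmation assay measuring inhibition of ATG4B activity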
Genome polyprotein = Genome polyprotein (dengue virus type 2, UniProt P29990); experiment: Dengue-2 NS5 methyltransferase inhibitors, primary screen, biochemical, confirmation dose response (AID 588689); format: functional
Genome polyprotein, sequence (P29990 2492-3391 limits assumed): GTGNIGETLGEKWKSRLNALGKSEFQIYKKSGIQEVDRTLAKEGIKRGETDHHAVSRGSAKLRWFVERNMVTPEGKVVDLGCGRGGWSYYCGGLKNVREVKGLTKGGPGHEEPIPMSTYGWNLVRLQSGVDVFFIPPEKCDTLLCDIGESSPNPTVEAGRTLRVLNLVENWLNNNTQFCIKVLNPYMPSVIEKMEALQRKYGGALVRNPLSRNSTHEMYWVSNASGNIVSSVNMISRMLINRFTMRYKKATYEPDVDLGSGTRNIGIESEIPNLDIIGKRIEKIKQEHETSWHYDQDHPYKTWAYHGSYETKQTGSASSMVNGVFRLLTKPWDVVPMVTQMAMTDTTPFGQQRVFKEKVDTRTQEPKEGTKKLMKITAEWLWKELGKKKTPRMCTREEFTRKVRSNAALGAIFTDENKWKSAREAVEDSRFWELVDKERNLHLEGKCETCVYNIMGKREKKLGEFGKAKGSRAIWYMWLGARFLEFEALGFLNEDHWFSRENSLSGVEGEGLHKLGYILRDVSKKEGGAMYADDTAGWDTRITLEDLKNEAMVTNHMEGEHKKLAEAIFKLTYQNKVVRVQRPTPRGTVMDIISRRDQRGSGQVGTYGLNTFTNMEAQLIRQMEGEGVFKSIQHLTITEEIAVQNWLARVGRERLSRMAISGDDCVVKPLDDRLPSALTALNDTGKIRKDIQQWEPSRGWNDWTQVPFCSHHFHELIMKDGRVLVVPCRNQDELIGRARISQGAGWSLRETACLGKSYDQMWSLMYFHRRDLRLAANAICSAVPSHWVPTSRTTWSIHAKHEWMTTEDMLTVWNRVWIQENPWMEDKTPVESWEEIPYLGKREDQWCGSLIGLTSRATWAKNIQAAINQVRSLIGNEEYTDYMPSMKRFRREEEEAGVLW

[12] = biological target: Heat shock protein HSP 90-alpha (Homo sapiens, UniProt P07900); format: functional, organism-based
[13] = biological target: T1, Histone-lysine N-methyltransferase NSD2 (Homo sapiens, UniProt O96028); format: biochemical
T1 sequence (O96028 whole entry): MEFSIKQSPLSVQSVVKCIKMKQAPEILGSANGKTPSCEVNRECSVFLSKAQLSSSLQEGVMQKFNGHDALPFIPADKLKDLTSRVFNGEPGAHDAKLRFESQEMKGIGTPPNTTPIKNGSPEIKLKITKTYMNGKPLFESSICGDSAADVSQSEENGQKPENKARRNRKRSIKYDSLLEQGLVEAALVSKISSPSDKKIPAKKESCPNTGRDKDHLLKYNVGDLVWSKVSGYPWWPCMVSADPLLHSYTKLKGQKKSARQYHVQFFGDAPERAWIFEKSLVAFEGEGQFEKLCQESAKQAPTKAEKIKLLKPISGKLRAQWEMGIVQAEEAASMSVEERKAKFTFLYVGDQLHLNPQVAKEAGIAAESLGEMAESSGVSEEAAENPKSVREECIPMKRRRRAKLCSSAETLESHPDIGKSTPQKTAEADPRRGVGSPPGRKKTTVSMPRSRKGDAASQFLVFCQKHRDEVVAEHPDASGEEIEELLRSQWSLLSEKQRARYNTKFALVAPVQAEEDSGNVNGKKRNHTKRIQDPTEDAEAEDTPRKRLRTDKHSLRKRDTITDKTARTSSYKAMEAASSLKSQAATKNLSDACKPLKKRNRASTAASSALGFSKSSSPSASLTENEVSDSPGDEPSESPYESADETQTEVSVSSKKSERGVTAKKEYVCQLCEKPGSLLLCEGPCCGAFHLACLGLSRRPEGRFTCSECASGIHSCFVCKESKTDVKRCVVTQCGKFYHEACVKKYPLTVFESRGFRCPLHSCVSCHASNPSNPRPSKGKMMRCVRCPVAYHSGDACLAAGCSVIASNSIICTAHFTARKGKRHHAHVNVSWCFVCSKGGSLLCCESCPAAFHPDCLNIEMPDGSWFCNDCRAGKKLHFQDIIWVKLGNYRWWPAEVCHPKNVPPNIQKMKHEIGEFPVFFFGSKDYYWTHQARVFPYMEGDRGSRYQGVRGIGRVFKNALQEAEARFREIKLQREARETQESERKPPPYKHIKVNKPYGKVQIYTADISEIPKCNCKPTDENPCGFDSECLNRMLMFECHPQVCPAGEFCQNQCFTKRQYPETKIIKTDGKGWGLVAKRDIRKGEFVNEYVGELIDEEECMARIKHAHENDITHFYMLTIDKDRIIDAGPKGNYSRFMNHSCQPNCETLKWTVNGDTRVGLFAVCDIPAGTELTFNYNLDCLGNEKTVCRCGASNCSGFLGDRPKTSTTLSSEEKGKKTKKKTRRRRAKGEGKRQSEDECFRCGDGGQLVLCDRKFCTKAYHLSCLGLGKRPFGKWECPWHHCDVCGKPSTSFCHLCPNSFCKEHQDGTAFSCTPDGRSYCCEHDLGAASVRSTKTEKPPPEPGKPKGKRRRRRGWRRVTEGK

[14] = biological target: T2, Rac GTPase-activating protein 1 (Homo sapiens, UniProt Q9H0H5); experiment: MgcRacGAP GTPase-activating activity inhibitors, confirmation, biochemical, ADP Hunter fluorescence, primary and confirmatory (AID 624330); format: functional
T2 sequence (Q9H0H5 whole entry): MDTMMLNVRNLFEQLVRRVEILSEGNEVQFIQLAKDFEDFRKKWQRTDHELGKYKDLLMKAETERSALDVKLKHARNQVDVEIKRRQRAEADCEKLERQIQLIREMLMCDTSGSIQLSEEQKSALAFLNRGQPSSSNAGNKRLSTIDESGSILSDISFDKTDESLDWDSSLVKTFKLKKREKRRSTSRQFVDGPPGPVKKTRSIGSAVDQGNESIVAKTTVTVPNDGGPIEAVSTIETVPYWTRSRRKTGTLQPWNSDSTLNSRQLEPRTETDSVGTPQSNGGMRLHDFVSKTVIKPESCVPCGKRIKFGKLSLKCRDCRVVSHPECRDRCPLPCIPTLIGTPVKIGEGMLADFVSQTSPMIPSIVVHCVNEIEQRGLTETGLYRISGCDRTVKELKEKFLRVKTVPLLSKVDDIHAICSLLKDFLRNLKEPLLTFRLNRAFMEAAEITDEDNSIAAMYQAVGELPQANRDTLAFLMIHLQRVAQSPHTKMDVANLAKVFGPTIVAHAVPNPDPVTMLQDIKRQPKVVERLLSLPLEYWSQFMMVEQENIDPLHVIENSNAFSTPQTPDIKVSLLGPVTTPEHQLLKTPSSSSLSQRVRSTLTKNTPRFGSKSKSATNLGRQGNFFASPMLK

[15] = biological target: 1-phosphatidylinositol 4,5-bisphosphate phosphodiesterase gamma-1 (Homo sapiens, UniProt P19174); experiment: Counterscreen for inhibitors of phospholipase C isozymes (PLC-B3): Fluorescence-based biochemical high throughput dose response assay to identify inhibitors of phospholipase C isozymes (PLC-gamma1).
1-phosphatidylinositol 4,5-bisphosphate phosphodiesterase gamma-1, sequence (P19174 whole entry): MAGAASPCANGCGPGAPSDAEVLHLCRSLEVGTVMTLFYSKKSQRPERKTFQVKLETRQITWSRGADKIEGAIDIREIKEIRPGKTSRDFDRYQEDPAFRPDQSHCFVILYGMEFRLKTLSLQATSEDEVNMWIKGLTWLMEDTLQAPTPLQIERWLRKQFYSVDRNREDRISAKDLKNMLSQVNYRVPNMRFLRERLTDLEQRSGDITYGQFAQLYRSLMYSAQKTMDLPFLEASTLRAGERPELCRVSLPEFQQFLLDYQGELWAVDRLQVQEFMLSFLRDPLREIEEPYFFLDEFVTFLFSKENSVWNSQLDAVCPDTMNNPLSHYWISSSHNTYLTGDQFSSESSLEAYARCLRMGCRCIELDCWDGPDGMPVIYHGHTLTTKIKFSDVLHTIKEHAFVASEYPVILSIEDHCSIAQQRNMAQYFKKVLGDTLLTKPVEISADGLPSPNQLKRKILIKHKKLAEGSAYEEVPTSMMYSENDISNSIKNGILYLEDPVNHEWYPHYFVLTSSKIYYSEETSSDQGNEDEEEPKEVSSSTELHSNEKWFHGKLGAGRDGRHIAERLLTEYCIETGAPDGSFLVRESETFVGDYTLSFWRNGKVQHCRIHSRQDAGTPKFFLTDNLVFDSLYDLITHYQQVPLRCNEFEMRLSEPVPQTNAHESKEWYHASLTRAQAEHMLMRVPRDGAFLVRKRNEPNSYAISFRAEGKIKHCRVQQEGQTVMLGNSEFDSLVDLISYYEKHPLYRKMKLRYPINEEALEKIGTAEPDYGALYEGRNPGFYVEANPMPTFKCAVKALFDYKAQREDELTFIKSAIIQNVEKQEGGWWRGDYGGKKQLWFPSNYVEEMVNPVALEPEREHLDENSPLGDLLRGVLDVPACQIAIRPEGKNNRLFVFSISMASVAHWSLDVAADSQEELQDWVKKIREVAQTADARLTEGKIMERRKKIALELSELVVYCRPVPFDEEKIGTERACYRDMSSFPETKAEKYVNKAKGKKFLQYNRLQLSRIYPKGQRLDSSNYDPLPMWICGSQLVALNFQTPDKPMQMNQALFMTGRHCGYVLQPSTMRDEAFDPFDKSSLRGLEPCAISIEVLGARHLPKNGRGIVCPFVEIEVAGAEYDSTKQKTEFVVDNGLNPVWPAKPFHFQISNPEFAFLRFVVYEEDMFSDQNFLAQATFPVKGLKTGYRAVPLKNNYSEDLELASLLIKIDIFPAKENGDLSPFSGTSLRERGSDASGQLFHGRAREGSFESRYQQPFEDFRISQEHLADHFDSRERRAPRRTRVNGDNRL

[16] = biological target: T3, Sentrin-specific protease 8 (Homo sapiens, UniProt Q96LD8); format: functional
T3 sequence (Q96LD8 whole entry): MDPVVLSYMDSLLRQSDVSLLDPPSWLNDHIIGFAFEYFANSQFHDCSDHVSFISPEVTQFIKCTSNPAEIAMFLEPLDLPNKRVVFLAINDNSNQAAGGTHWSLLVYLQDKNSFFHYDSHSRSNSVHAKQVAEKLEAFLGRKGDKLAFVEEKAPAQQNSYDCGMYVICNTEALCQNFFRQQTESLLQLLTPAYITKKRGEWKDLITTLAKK

[17] = HeLa cell cytotoxicity, dose response, cytotoxicity control for MgcRacGAP inhibitor project (AID 624300); format: functional
[18] = biological target: T3, Sentrin-specific protease 8; format: functional; remark: listed apart in the source
[19] = biological target: Tyrosyl-DNA phosphodiesterase 2 (Homo sapiens, UniProt O95551); experiment: human TDP2 enzyme inhibitors, dose response, biochemical, epi absorbance, IC50 (AID 743297)
Tyrosyl-DNA phosphodiesterase 2, sequence (O95551 whole entry): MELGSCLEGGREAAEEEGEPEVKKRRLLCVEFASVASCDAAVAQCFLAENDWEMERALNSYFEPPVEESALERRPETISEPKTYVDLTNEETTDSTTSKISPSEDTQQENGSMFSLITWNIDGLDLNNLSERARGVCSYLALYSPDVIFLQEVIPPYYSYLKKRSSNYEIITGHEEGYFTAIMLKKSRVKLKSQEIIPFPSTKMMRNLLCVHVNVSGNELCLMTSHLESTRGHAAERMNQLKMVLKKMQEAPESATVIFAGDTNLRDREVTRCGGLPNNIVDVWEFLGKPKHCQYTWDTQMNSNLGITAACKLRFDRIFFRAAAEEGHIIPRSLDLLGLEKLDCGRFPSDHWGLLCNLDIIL

Phospholipase A2 = Phospholipase A2 (Homo sapiens, UniProt P04054); format: functional;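 also: confirmatory dose-response counterscreen on phospholipase A2, testing hits that came from an ultra-high-throughput screen for ATG4B inhibitors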
Bcl-2-like protein 10 = Bcl-2-like protein 10 (Homo sapiens, UniProt Q9HD36); experiment: displacers of TR3 peptide from Bcl-B, primary screen, selectivity assay for Bfl-1 inhibitor project, biochemical, fluorescence polarization, FITC-TR3 peptide (AID 748);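 also: fluorescence polarization from a fluorescein-labelled TR3 peptide binding purified Bcl-B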
[20] = Artemis endonuclease inhibitor potency, dose response, biochemical, fluorescence intensity (AID 720701); format: functional;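 also: Artemis endonuclease enzyme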
Kallikrein-7 = Kallikrein-7 (Homo sapiens, UniProt P49862); experiment: Fluorescence Intensity-based biochemical primary high throughput dose response assay to identify activators of kallikrein-7 (K7) zymogen.
Kallikrein-7, sequence (P49862 whole entry): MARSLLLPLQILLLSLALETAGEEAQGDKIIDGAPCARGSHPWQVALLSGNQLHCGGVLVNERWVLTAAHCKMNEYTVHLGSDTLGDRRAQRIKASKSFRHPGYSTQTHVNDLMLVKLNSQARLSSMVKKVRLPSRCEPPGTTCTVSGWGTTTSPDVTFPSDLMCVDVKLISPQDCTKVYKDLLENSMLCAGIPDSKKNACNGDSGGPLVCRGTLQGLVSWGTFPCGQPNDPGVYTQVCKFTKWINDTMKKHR

cells [21] = experiment: cells
[22] = biological target: Protein disulfide-isomerase A6 (Homo sapiens, UniProt Q15084); experiment: inhibitors of ERp5-mediated insulin aggregation, dose response, biochemical, turbidity, absorbance 650 nm, cherry-picked samples (AID 720566)
[23] = cytotoxicity in A549 cells, dose response, cytotoxicity control, cell-based, cherry-picked samples (AID 1053184); format: functional
Mu-type opioid receptor = Mu-type opioid receptor (Homo sapiens, UniProt P35372); experiment: Late-stage results from the probe development effort to identify antagonists of OPRK1: luminescence-based cell-based dose response OPRM1 counterscreen, Set 2.; format: functional
Mu-type opioid receptor, sequence (P35372 whole entry): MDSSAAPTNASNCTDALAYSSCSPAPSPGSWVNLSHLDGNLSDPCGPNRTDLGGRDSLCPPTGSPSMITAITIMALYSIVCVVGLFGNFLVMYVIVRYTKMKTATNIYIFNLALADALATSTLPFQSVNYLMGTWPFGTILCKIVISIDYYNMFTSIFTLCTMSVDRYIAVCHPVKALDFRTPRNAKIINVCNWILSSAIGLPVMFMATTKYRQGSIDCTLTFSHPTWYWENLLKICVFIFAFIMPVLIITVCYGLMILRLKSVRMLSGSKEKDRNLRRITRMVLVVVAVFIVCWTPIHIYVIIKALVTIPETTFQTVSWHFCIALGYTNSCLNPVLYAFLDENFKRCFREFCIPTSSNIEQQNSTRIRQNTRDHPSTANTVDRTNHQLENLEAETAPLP

[24] = biological target: Delta-type opioid receptor (Homo sapiens, UniProt P41143); experiment: Late-stage results from the probe development effort to identify antagonists of OPRK1: fluorescence-based cell-based dose response OPRD1 counterscreen, Set 2.; format: functional
Delta-type opioid receptor, sequence (P41143 whole entry): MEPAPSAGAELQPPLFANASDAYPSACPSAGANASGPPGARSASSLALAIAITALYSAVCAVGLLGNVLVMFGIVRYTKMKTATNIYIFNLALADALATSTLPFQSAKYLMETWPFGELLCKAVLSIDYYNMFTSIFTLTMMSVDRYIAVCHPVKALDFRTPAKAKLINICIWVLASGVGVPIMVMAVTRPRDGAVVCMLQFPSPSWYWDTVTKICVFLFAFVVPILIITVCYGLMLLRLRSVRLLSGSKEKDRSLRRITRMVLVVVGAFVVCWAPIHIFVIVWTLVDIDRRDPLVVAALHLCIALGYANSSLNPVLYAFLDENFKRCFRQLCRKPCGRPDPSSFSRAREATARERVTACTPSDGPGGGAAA

[25] = biological target: Sphingosine 1-phosphate receptor 1 (Homo sapiens, UniProt P21453); experiment: Late-stage counterscreen for antagonists of kappa opioid receptor 1 (OPRK1): fluorescence-based cell-based dose response assay to identify antagonists of Sphingosine 1-Phosphate Receptor 1 (S1P1).; format: functional
Sphingosine 1-phosphate receptor 1, sequence (P21453 whole entry): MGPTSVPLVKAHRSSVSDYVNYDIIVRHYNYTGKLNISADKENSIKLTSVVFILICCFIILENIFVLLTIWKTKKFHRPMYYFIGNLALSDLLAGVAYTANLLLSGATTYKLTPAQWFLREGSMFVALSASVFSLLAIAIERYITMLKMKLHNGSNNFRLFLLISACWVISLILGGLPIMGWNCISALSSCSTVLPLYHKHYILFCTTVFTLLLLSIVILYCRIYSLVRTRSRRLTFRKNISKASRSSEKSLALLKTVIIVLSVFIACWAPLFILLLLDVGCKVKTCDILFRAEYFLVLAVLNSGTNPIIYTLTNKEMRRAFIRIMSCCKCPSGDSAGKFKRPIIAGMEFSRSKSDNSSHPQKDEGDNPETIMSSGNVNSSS

[26] = biological target: Kappa-type opioid receptor (Homo sapiens, UniProt P41145); experiment: Late-stage fluorescence-based cell-based dose response assay for antagonists of kappa opioid receptor 1 (OPRK1).; format: functional
cells [27] = conditions: HEK293
[28] = HepG2 cell cytotoxicity, dose response, cytotoxicity control, ATP luminescence, cherry-pick, set 6 (AID 1053125); format: functional, cell-based
[29] = cytotoxicity toward NIH3T3 fibroblasts, dose response, counter-screen, cell-based, ATP luminescence, mouse fibroblasts (AID 2010); format: functional;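 also: cells exposed to compound for about 90 hours before reading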
[30] = inhibitors of intracellular T. cruzi replication, confirmation, NIH3T3 host cells, beta-gal luminescence (AID 2044); format: functional, cell-based;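 also: intracellular parasites grown in NIH/3T3 mouse fibroblasts as host cells; luminescent beta-galactosidase reporter signal from transgenic T. cruzi replicating inside host cells; inhibitors lower the luminescence signal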
[31] = Late stage counterscreen for inhibitors of Trypanosoma brucei methionyl tRNA synthetase (MetRS): Luminescence-based cell-based high throughput dose response assay to identify compounds that are cytotoxic to Jurkat human T lymphocyte cells.; format: functional

Structure (SMILES): Fc1ccc(CSc2nnc(-c3ccc(Cl)cc3)o2)cc1
- IC90 [1]: 2 µM (active)
- IC90 [2]: 2 µM (active)

Structure (SMILES): Cc1ccc(S(=O)(=O)Nc2cc(Sc3nc(C)cc(C)n3)c(O)c3ccccc23)cc1
- CC50 [3]: 20.9 µM (active)

Structure (SMILES): COc1cc(C(=O)NCCOc2cc(C)cc(C)c2)cc(OC)c1OC
- AC50 [4]: 24.7 µM (active)
- EC50 (BJ [5]): 17.1 µM (inconclusive)
- AC50 [6]: 16.9 µM (active)
- EC50 [7]: 4.9 µM (active)
- EC50 (BJ [8]): 5.25 µM (active)
- EC50 (BJ [9]): 16.3 µM (active)

Structure (SMILES): O=C1C(=C(I)I)c2ccccc2-c2ccccc21
- IC50 [10]: > 122 µM (inactive)
- CC50 (Vero): 15.3 µM (active)
- IC50 (Beta-galactosidase): > 66.6 µM (inactive)
- IC50 [11]: 1.2 µM (active)
- IC50 (Cysteine protease ATG4B): 7.13 µM (active)
- IC50 (Genome polyprotein): 29 µM (active)
- AC50 [12]: 5.65 µM (active)
- AC50 [13]: 2.24 µM (active)
- IC50 [14]: 19.8 µM (active)
- IC50 [15]: > 122 µM (inactive)
- IC50 [16]: 1.74 µM (active)
- CC50 [17]: 27.4 µM (active)
- IC50 [18]: > 100 µM (inactive)
- IC50 [19]: 8.29 µM (active)
- IC50 (Phospholipase A2): 58.1 µM (inactive)

Structure (SMILES): Cc1cc(OCC(=O)Nc2ccc(N3CCCC3)cc2)cc(C)c1Cl
- IC50 (Bcl-2-like protein 10): > 100 µM (inactive)
- IC50 [20]: > 20 µM (inactive)

Structure (SMILES): C=C(C)Cn1c2ccc(NC(=O)NCc3ccccc3)cc2c(=O)n1C
- EC50 (Kallikrein-7): > 69.5 µM (inactive)

Structure (SMILES): O=C(O)c1ccc(-c2ccc(/C=C3\NC(=O)N(Cc4ccc(Cl)cc4)C3=O)o2)cc1
- AC50 (cells [21]): 1.78 µM (active)

Structure (SMILES): Cc1cc(OCCCCOc2ccc(S(N)(=O)=O)c(C)c2)ccc1S(N)(=O)=O
- AC50 [22]: 45.5 µM (active)

Structure (SMILES): C[C@@H]1CN([C@@H](C)CO)C(=O)Cc2cc(NC(=O)C3CCCCC3)ccc2O[C@@H]1CN(C)Cc1ccc(Cl)c(Cl)c1
- AC50 [23]: 37.8 µM (active)

Structure (SMILES): Clc1ccc2c(Nc3ccc4c(c3)OCO4)ccnc2c1
- IC50 (Mu-type opioid receptor): > 50 µM (inactive)
- IC50 [24]: > 50 µM (inactive)
- IC50 [25]: > 50 µM (inactive)
- IC50 [26]: 13.8 µM (inactive)

Structure (SMILES): N#Cc1c2ccc(O)cc2n2ccccc12
- AC50 (cells [27]): > 52 µM (inactive)
- AC50 [28]: > 52 µM (inactive)
- EC50 [29]: > 60 µM (not active)
- EC50 [30]: 0.68 µM (active)

Structure (SMILES): O=C(CC=NOCc1ccc([N+](=O)[O-])cc1)Nc1ccc(Br)cc1
- IC50 [31]: > 83.3 µM (inactive)
